These are literature values, as cited in patent EP0341603A2, “Atrial peptide derivatives” (ABBOTT LABORATORIES, priority 1988, dated 1989).

Bridge positions count the residues as written; N and C are the ends. Ends that are not written are not given here.

For the data set the following is noted: relative to furosemide.

Take “alpha-hANP: alpha-human atrial natriuretic polypeptide isolated from human atrium, a polypeptide consisting of 28 amino acids (SLRRSSCFGGRMDRIGAQSGLGCNSFRY; disulfide 7-23 (inferred); ends not checked; UniProt P01160 124-151, looked up)”: the “diuretic action, times as strong as that of furosemide” value was “about 1000 times”.
